Data set [1] can be described thus: Assay (III) ThT fibrillation assay for physical stability. It is filed as physicochemical. Summed up: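 Freshly prepared formulations, pH-adjusted, with 1 μM ThT; four or eight replicates incubated at 37 °C under 960 rpm orbital shaking. Fluorescence (ex 444/em 485 nm) read every 20 min; […]. Peptide concentration measured by RP-HPLC before and after the run.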

In data set [2] the target is T1, rat calcitonin (a) receptor (Rattus norvegicus, UniProt P32214).
T1 construct: expressed in transfected cells; host or cells: BHK tk'ts 13
T1 sequence (P32214 25-479 isoform P32214-2 limits assumed): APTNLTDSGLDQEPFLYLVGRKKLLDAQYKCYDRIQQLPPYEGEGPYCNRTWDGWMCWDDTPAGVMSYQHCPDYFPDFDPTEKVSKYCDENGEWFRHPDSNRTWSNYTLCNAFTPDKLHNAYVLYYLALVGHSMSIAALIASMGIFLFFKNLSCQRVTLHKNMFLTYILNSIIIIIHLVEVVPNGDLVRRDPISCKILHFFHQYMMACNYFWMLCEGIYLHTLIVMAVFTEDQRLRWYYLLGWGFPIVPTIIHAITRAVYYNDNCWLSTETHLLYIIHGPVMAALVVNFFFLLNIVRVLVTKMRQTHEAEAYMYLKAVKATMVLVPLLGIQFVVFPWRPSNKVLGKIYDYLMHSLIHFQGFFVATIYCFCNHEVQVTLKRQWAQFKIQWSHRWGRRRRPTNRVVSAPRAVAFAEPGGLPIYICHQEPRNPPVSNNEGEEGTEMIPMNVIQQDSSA
In words: Assay (II)b functional cAMP FlashPlate assay, rat calcitonin receptor. It is filed as cell-based. The following applies: Table 11; read-out: CTa receptor rat EC50. Summed up: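 BHK tk'ts 13 cells transiently transfected with rat calcitonin(a) receptor, alone or with rat RAMP3 (amylin 3(a)), were stimulated 24 hours later with sample for 30 min in buffer containing IBMX. cAMP measured by competitive radioactive FlashPlate assay, scintillation read after 3 h detection incubation.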

The record followed here is patent US8722849B2, “Polypeptides” (Novo Nordisk A/S, priority 2011, dated 2014).

Starred links: 1 amine or outer side, 2 acyl side, 3 side chain; linkers in the order of their positions; H or OH if unused. Positions of bridges follow the written chain, without caps; N, C: chain ends. Non-standard residues stand in square brackets, D forms with d. Residues, ends and D or L forms follow the SMILES beside them. *: point of attachment. C20 diacid = O=C(O)CCCCCCCCCCCCCCCCCCC(=O)*; C18 diacid = O=C(O)CCCCCCCCCCCCCCCCC(=O)*; γGlu = O=C(O)[C@H](CCC(=O)[*:2])N[*:1]; Orn = NCCC[C@H](N)C(=O)O; AEEA = NCCOCCOCC(=O)O

`CC[C@H](C)[C@H](NC(=O)[C@@H]1CCCN1C(=O)CNC(=O)[C@H](Cc1ccccc1)NC(=O)[C@H](CC(N)=O)NC(=O)[C@H](CC(N)=O)NC(=O)[C@H](CO)NC(=O)[C@H](CO)NC(=O)[C@H](Cc1c[nH]cn1)NC(=O)[C@H](CCCNC(=N)N)NC(=O)[C@H](CC(C)C)NC(=O)[C@H](Cc1ccccc1)NC(=O)[C@H](CCC(=O)O)NC(=O)[C@H](C)NC(=O)[C@H](CC(C)C)NC(=O)[C@H](CCCNC(=N)N)NC(=O)[C@H](CCC(N)=O)NC(=O)[C@@H](NC(=O)[C@H](C)NC(=O)[C@@H]1CSSC[C@H](NC(=O)[C@H](CCCCN)NC(=O)CC[C@H](NC(=O)CCCCCCCCCCCCCCCCCCC(=O)O)C(=O)O)C(=O)N[C@@H](CC(N)=O)C(=O)N[C@@H]([C@@H](C)O)C(=O)N[C@@H](C)C(=O)N[C@@H]([C@@H](C)O)C(=O)N1)[C@@H](C)O)C(=O)N[C@@H](CC(C)C)C(=O)N1CCC[C@H]1C(=O)N1CCC[C@H]1C(=O)N[C@H](C(=O)N[C@@H](CC(N)=O)C(=O)N[C@H](C(=O)NCC(=O)N[C@@H](CO)C(=O)N[C@@H](CC(N)=O)C(=O)N[C@H](C(=O)N1CCC[C@H]1C(N)=O)[C@@H](C)O)C(C)C)[C@@H](C)O` [Example 53, N-alpha-[(S)-4-Carboxy-4-(19-carboxynonadecanoylamino)butyryl]-[Glu14,Arg17,Pro37]-pramlintide]: the “ThT pH 4.0 lag time” value in data set [1] (Table 8), in data set [1] (Table 9) and in data set [1] (ThT fibrillation assay) was above 45 h in each case. The “ThT pH 4.0 lag time (h)” value in data set [1] (ThT fibrillation assay) is listed as above 45 h. For the same compound, the EC50 (as a rule, the concentration at which the effect is half-maximal) in data set [2] amounted to 0.287 nM.

Regarding `CC[C@H](C)[C@H](NC(=O)[C@@H]1CCCN1C(=O)CNC(=O)[C@H](Cc1ccccc1)NC(=O)[C@H](CC(N)=O)NC(=O)[C@H](CC(N)=O)NC(=O)[C@H](CO)NC(=O)[C@H](CO)NC(=O)[C@H](Cc1c[nH]cn1)NC(=O)[C@H](Cc1c[nH]cn1)NC(=O)[C@H](CC(C)C)NC(=O)[C@H](Cc1ccccc1)NC(=O)[C@H](CCC(=O)O)NC(=O)[C@H](C)NC(=O)[C@H](CC(C)C)NC(=O)[C@H](CCCNC(=N)N)NC(=O)[C@H](CCC(N)=O)NC(=O)[C@@H](NC(=O)[C@H](C)NC(=O)[C@@H]1CSSC[C@H](NC(=O)[C@H](CCCNC(=N)N)NC(=O)CC[C@H](NC(=O)CCCCCCCCCCCCCCCCCCC(=O)O)C(=O)O)C(=O)N[C@@H](CC(N)=O)C(=O)N[C@@H]([C@@H](C)O)C(=O)N[C@@H](C)C(=O)N[C@@H]([C@@H](C)O)C(=O)N1)[C@@H](C)O)C(=O)N[C@@H](CC(C)C)C(=O)N1CCC[C@H]1C(=O)N1CCC[C@H]1C(=O)N[C@H](C(=O)N[C@@H](CC(N)=O)C(=O)N[C@H](C(=O)NCC(=O)N[C@@H](CO)C(=O)N[C@@H](CC(N)=O)C(=O)N[C@H](C(=O)N1CCC[C@H]1C(N)=O)[C@@H](C)O)C(C)C)[C@@H](C)O` [Example 96, N-alpha-[(S)-4-Carboxy-4-(19-carboxynonadecanoylamino)butyryl]-[Arg1,Glu14,His17,Pro37]-pramlintide] ({C20 diacid-γGlu}-RCNTATCATQRLAEFLHHSSNNFGPILPPTNVGSNTP-NH2; disulfide 2-7 (inferred)), the “ThT pH 4.0 lag time” value in data set [1] (Table 8), in data set [1] (Table 9) and in data set [1] (ThT fibrillation assay) was above 45 h each time. In data set [1] (ThT fibrillation assay), the “ThT pH 4.0 lag time (h)” value is on record as above 45 h. For the same compound, the EC50 in data set [2] is 0.058 nM.

With `CC[C@H](C)[C@H](NC(=O)[C@@H]1CCCN1C(=O)CNC(=O)[C@H](Cc1ccccc1)NC(=O)[C@H](CC(N)=O)NC(=O)[C@H](CC(N)=O)NC(=O)[C@H](CO)NC(=O)[C@H](CO)NC(=O)[C@H](Cc1c[nH]cn1)NC(=O)[C@H](Cc1c[nH]cn1)NC(=O)[C@H](CC(C)C)NC(=O)[C@H](Cc1ccccc1)NC(=O)[C@H](CCC(=O)O)NC(=O)[C@H](C)NC(=O)[C@H](CC(C)C)NC(=O)[C@H](CCCNC(=N)N)NC(=O)[C@H](CCC(N)=O)NC(=O)[C@@H](NC(=O)[C@H](C)NC(=O)[C@@H]1CSSC[C@H](NC(=O)[C@H](CCCCN)NC(=O)CC[C@H](NC(=O)CCCCCCCCCCCCCCCCC(=O)O)C(=O)O)C(=O)N[C@@H](CC(N)=O)C(=O)N[C@@H]([C@@H](C)O)C(=O)N[C@@H](C)C(=O)N[C@@H]([C@@H](C)O)C(=O)N1)[C@@H](C)O)C(=O)N[C@@H](CC(C)C)C(=O)N1CCC[C@H]1C(=O)N1CCC[C@H]1C(=O)N[C@H](C(=O)N[C@@H](CC(N)=O)C(=O)N[C@H](C(=O)NCC(=O)N[C@@H](CO)C(=O)N[C@@H](Cc1c[nH]cn1)C(=O)N[C@H](C(=O)N[C@@H](Cc1ccc(O)cc1)C(N)=O)[C@@H](C)O)C(C)C)[C@@H](C)O` [Example 59, N-alpha-[(S)-4-Carboxy-4-(17-carboxyheptadecanoylamino)butyryl]-[Glu14,His17,His35]-pramlintide] ({C18 diacid-γGlu}-KCNTATCATQRLAEFLHHSSNNFGPILPPTNVGSHTY-NH2; disulfide 2-7 (inferred)), the “ThT pH 4.0 lag time” value in data set [1] (Table 8), in data set [1] (Table 9) and in data set [1] (ThT fibrillation assay) was above 45 h each time. For the same compound, the “ThT pH 4.0 lag time (h)” value in data set [1] (ThT fibrillation assay) was above 45 h. In data set [2], the EC50 was 0.148 nM.

In the case of `CC[C@H](C)[C@H](NC(=O)[C@@H]1CCCN1C(=O)CNC(=O)[C@H](Cc1ccccc1)NC(=O)[C@H](CC(N)=O)NC(=O)[C@H](CC(N)=O)NC(=O)[C@H](CO)NC(=O)[C@H](CO)NC(=O)[C@H](CCCNC(=N)N)NC(=O)[C@H](Cc1c[nH]cn1)NC(=O)[C@H](CC(C)C)NC(=O)[C@H](Cc1ccccc1)NC(=O)[C@H](CCC(=O)O)NC(=O)[C@H](C)NC(=O)[C@H](CC(C)C)NC(=O)[C@H](CCCNC(=N)N)NC(=O)[C@H](CCC(N)=O)NC(=O)[C@@H](NC(=O)[C@H](C)NC(=O)[C@@H]1CSSC[C@H](NC(=O)[C@H](CCCN)NC(=O)[C@@H](CCCNC(=N)N)NC(=O)[C@@H](CCCNC(=N)N)NC(=O)COCCOCCNC(=O)COCCOCCNC(=O)CC[C@H](NC(=O)CCCCCCCCCCCCCCCCC(=O)O)C(=O)O)C(=O)N[C@@H](CC(N)=O)C(=O)N[C@@H]([C@@H](C)O)C(=O)N[C@@H](C)C(=O)N[C@@H]([C@@H](C)O)C(=O)N1)[C@@H](C)O)C(=O)N[C@@H](CC(C)C)C(=O)N1CCC[C@H]1C(=O)N1CCC[C@H]1C(=O)N[C@H](C(=O)N[C@@H](CC(N)=O)C(=O)N[C@H](C(=O)NCC(=O)N[C@@H](CO)C(=O)N[C@@H](CC(N)=O)C(=O)N[C@H](C(=O)N[C@@H](Cc1ccc(O)cc1)C(N)=O)[C@@H](C)O)C(C)C)[C@@H](C)O` [Example 120, N-alpha-[2-(2-{2-[2-(2-{2-[(S)-4-Carboxy-4-(17-carboxyheptadecanoylamino)butyrylamino]ethoxy}ethoxy)acetylamino]ethoxy}ethoxy)acetyl]-D-Arg-D-Arg-[Orn1,Glu14,His17,Arg18]-pramlintide] ({C18 diacid-γGlu-AEEA-AEEA}-[dR][dR][Orn]CNTATCATQRLAEFLHRSSNNFGPILPPTNVGSNTY-NH2; disulfide 4-9 (inferred); C-terminus assumed), the “ThT pH 4.0 lag time (h)” value in data set [1] (ThT fibrillation assay) came to 22 h. Further, the EC50 in data set [2] is 2.57 nM.

Turning to `CC[C@H](C)[C@H](NC(=O)[C@@H]1CCCN1C(=O)CNC(=O)[C@H](Cc1ccccc1)NC(=O)[C@H](CC(N)=O)NC(=O)[C@H](CC(N)=O)NC(=O)[C@H](CO)NC(=O)[C@H](CO)NC(=O)[C@H](Cc1c[nH]cn1)NC(=O)[C@H](CCCNC(=N)N)NC(=O)[C@H](CC(C)C)NC(=O)[C@H](Cc1ccccc1)NC(=O)[C@H](CCC(=O)O)NC(=O)[C@H](C)NC(=O)[C@H](CC(C)C)NC(=O)[C@H](CCCNC(=N)N)NC(=O)[C@H](CCC(N)=O)NC(=O)[C@@H](NC(=O)[C@H](C)NC(=O)[C@@H]1CSSC[C@H](NC(=O)[C@H](Cc2c[nH]cn2)NC(=O)CNC(=O)CC[C@H](NC(=O)CCCCCCCCCCCCCCCCCCC(=O)O)C(=O)O)C(=O)N[C@@H](CC(N)=O)C(=O)N[C@@H]([C@@H](C)O)C(=O)N[C@@H](C)C(=O)N[C@@H]([C@@H](C)O)C(=O)N1)[C@@H](C)O)C(=O)N[C@@H](CC(C)C)C(=O)N1CCC[C@H]1C(=O)N1CCC[C@H]1C(=O)N[C@H](C(=O)N[C@@H](CC(N)=O)C(=O)N[C@H](C(=O)NCC(=O)N[C@@H](CO)C(=O)N[C@@H](CC(N)=O)C(=O)N[C@H](C(=O)N1CCC[C@H]1C(N)=O)[C@@H](C)O)C(C)C)[C@@H](C)O` [Example 89, N-alpha-[(S)-4-Carboxy-4-(19-carboxynonadecanoylamino)butyryl]-Gly-[His1,Glu14,Arg17,Pro37]-pramlintide] ({C20 diacid-γGlu}-GHCNTATCATQRLAEFLRHSSNNFGPILPPTNVGSNTP-NH2; disulfide 3-8 (inferred)), the “ThT pH 4.0 lag time” value in data set [1] (Table 8), in data set [1] (Table 9) and in data set [1] (ThT fibrillation assay) was above 45 h each time. Besides, in data set [1] (ThT fibrillation assay), the “ThT pH 4.0 lag time (h)” value is recorded as above 45 h. Moreover, the EC50 in data set [2] is 0.114 nM.
